Test results: patent publication US9364453B2, “Method of treating postural reflex abnormality caused by parkinson's disease” (Lundbeck NA Ltd., priority 2011, dated 2016)

Legend:
[1] = as compared to L-DOPA; cited from earlier work
[2] = tested on: PA disease patient with pure akinesia and chief complaint of freezing of gait, not responsive to L-DOPA preparation; assay: Example 3: treatment of a PA disease patient with pure akinesia and freezing of gait, not responsive to L-DOPA preparation; format: in vivo, human; conditions: person, DOPS 600 mg/day in 3 portions
Description: A combined use of DOPS and a COMT inhibitor was effective for the “freezing of gait symptom” for which L-DOPA preparation is not effective.

patients with PA disease = conditions: cited from earlier work
[3] = tested on: PA disease patient with pure akinesia and chief complaint of freezing of gait; assay: Example 2: treatment of a PA disease patient with pure akinesia and chief complaint of freezing of gait; format: in vivo, human; conditions: person; DOPS 300 mg/day in 3 portions
Description: Treatment effect of therapeutic agent of the present invention for PA disease patient with pure akinesia and chief complaint of freezing of gait A PA disease patient with pure akinesia and chief complaint of freezing of gait: person. a) DOPS (300 mg/day) was administered in 3 portions, but ineffective. b) DOPS (300 mg/day) and Comtan® (300 mg/day) as a COMT inhibitor were simultaneously administered in 3 portions each. […] Combined use of DOPS and Comtan® (COMT inhibitor) was effective even in a treatment without using an L-DOPA preparation and a dopamine receptor stimulator.

[4] = target: T1, aromatic amino acid decarboxylase (AADC) (Homo sapiens, UniProt P20711); conditions: as compared to L-DOPA; cited from earlier work
T1 sequence (P20711 1-480): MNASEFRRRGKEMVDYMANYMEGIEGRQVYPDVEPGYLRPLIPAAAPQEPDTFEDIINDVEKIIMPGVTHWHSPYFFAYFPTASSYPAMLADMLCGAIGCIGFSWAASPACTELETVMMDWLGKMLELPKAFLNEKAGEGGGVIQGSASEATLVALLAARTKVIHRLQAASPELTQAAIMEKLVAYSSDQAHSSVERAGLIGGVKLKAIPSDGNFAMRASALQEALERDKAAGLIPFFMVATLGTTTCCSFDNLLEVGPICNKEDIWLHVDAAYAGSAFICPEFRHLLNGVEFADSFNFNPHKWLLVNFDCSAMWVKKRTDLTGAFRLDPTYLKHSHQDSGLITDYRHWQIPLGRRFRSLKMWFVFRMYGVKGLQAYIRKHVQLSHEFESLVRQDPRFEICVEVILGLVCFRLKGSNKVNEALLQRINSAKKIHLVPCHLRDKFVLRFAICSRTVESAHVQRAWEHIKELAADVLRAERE

## N[C@H](C(=O)O)[C@H](O)c1ccc(O)c(O)c1 [DOPS, L-threo-3,4-dihydroxy-phenylserine]
[1]
  transferability into the brain: low
[2]
  effect on freezing of gait: slight improvement effect
Patients with PA disease; double-blind comparison, DOPS in optically active form
  clinical trial results versus placebo: significantly superior to that of placebo
Patients with PA disease; in vivo
  efficacy rate: not necessarily high
[3]
  effect on freezing of gait: ineffective
[4]
  decarboxylation reaction rate: low
